This is an account of results in US20090209527A1, “Methods for Using Rapamycin Analogues in the Treatment of Neurological Disorders” (Wyeth, priority 2008, published 2009).

Where two headings read alike, the source gives them in different places. A value given as a limit tells only on which side of the number the result lay.

In experiment [1] the test system is cortical neuron cultures. As to the kind of experiment: Cortical neuron assay (neurite outgrowth in dissociated cortical neuron cultures). The format is cell-based, rat. The following applies: Rattus norvegicus, Cortical neurone; 72 hours treatment, neurite outgrowth; read-out: EC50 in cortical neuron assays. The procedure: Dissociated cortical neuron cultures were prepared as previously described (Liu et al., Screening of Immunophilin Ligands by Quantitative Analysis of Neurofilament Expression and Neurite Outgrowth in Cultured Neurons and Cells, J. Neurosci. Methods, 2007 Jul. 30; 163(2):310-20).
Briefly, embryonic day 15 rat fetuses were collected and dissected in ice-cold PBS. Dissected cortices were pooled together and transferred to an enzymatic dissociation medium containing papain. After 30 minutes, the tissue was mechanically triturated with a fire-polished glass Pasteur pipette. Single-cell suspensions in complete media were seeded on poly-L-ornithine and laminin coated 96-well plates. After 24 hours, cultures were treated with various concentrations of compound for 72 hours. The cultures were then fixed and stained with an anti-tubulin primary antibody (TUJ-1) and a fluorescent-tagged secondary antibody. Neurite outgrowth was determined by using the Enhanced Neurite Outgrowth (ENO) algorithm with the Cellomics ArrayScan and expressed as average neurite length or total neurite length per cell.

Experiment [2] concerns Mesencephalic dopaminergic neuron cultures. Nature of the experiment: Dopaminergic uptake assay (3H-dopamine uptake after MPP+ exposure). The format is cell-based, rat. The following applies: read-out: EC50 in dopaminergic uptake assays. The procedure: Mesencephalic dopaminergic neuron cultures were prepared as described in Pong et al., J. Neurochem. 69: 986-994, 1997, which is incorporated herein by reference in its entirety. Embryonic day 15 (E15) rat fetuses were collected and dissected in ice-cold phosphate-buffered saline (PBS). The ventral piece of tissue compromising the mesencephalic dopaminergic region was dissected out. Dissected pieces of tissue were pooled together and transferred to an enzymatic dissociation medium containing 20 IU/mL papain in Earle's balanced salt solution (Worthington Biochemical, Freehold, N.J., USA) and incubated for 60 minutes at 37° C. After enzymatic dissociation, the papain solution was aspirated and the tissue mechanically triturated with a fire-polished glass Pasteur pipette in complete medium (equal volumes of minimum essential medium (MEM) and F-12 nutrient mixture (GibcoBRL) supplemented with 0.1 mg/mL apotransferrin and 2.5 μg/mL insulin) containing 2,000 IU/mL DNase and 10 mg/mL ovomucoid protease inhibitor.
For dopamine uptake experiments, single-cell suspensions in complete media were seeded on poly-L-ornithine and laminin coated 24-well plates. The cultures were maintained for seven days prior to experimentation. […]
After 48 hours growth of mesencephalic dopaminergic neuron cultures following MPP+ exposure, high-affinity 3H-dopamine uptake was performed using a modified method described by Prochiantz et al., Nature 293: 570-572, 1981, which is incorporated herein by reference. Cultures were washed with pre-warmed PBS containing 5.6 mM glucose and 1 mM ascorbic acid. Cultures were then incubated for 15 minutes at 37° C. with 50 nM 3H-dopamine (31 Ci/mmol, DuPont-NEN, Wilmington, Del., USA). The cultures were washed twice with buffer and lysed with 0.5N NaOH. The lysate was transferred to a scintillation vial containing Ultima Gold scintillation cocktail and radioactivity was determined with a liquid scintillation counter. Alternatively, culture lysates can be washed twice with buffer, incubated for 2 hours at room temperature with Optiphase Supermix scintillation cocktail (Wallac Scintillation Products, Gaithersburg, Md., USA), and radioactivity measured with a liquid scintillation counter.

In experiment [3] the test system is Spinal cord neuron cultures. Nature of the experiment: Spinal cord neuron assay. The format is cell-based. The following applies: Rattus norvegicus, 72 hours treatment, read-out: EC50 in spinal cord neuron assays. As to the method: Spinal cord neuron cultures were prepared from embryonic day 15 (E15) rat embryos (Liu et al., Screening of Immunophilin Ligands by Quantitative Analysis of Neurofilament Expression and Neurite Outgrowth in Cultured Neurons and Cells, J. Neurosci. Methods, 2007 Jul. 30; 163(2):310-20). The embryos were collected and their spinal cords were removed in ice-cold phosphate-buffered saline (PBS) without Ca^2+ and Mg^2+. Dissected pieces of spinal cord tissue were pooled together and transferred to an enzymatic dissociation media containing 20 IU/mL papain in Earle's balanced salt solution (Worthington Biochemical, Freehold, N.J.) and incubated for 30 minutes at 37° C. After enzymatic dissociation, the papain solution was aspirated and the tissue mechanically triturated with a fire-polished Pasteur pipette in complete media [Neurobasal Medium with B-27 supplement (Gibco, Grand Island, N.Y.), 100 IU/mL penicillin, 100 µg/mL streptomycin, […] aphidicolin, 0.5 mM glutamate] containing 2,000 IU/mL DNase and 10 mg/mL ovomucoid protease inhibitor. Single-cell suspensions in complete media were plated on pre-coated poly-L-ornithine/laminin 96-well plates (Becton-Dickinson, Bedford, Mass.) at a density of 1.0×10^4 cells/well. Spinal cord neurons were maintained for 24 hours then exposed to vehicle or various concentrations of compound for 72 hours.

Broadly, the EC50 is the concentration giving half of the maximal effect. On to `CO[C@H]1C[C@@H]2CC[C@@H](C)[C@@](O)(O2)C(=O)C(=O)N2CCCC[C@H]2C(=O)O[C@H]([C@H](C)C[C@@H]2CC[C@@H](OC(=O)C(C)(CO)CO)[C@H](OC)C2)CC(=O)[C@H](C)/C=C(\C)[C@@H](O)[C@@H](OC)C(=O)[C@H](C)C[C@H](C)/C=C/C=C/C=C/1C` [CCI-779, reference compound], for which the EC50 is greater than 1000 nM in experiment [1] and greater than 1000 nM in experiment [2] (Rattus norvegicus, Neuron).

In the case of `CO[C@H]1C[C@@H]2CC[C@@H](C)[C@@](O)(O2)C(=O)C(=O)N2CCCC[C@H]2C(=O)O[C@H]([C@H](C)C[C@@H]2CC[C@@H](O)[C@H](OC)C2)CC(=O)[C@H](C)/C=C(\C)[C@@H](O)[C@@H](OC)C(=O)[C@H](C)C[C@H](C)[C@@H]2C=C[C@H](/C=C/1C)ON2c1ccccc1` [Example 1, 9,27-dihydroxy-3-{2-[4-hydroxy-3-methoxycyclohexyl]-1-methylethyl}-10,21-dimethoxy-6,8,12,14,20,26-hexamethyl-37-phenyl-4,9,10,12,13,14,15,18,21,22,23,24,25,26,27,32,33,34,34a-nonadecahydro-3H-23,27-epoxy-18,15-(epoxyimino)pyrido[2,1-c][1,4]oxazacyclohentriacontine-1,5,11,28,29(6H,31H)-pentone], the EC50 in experiment [3] was less than 1000 nM; in experiment [1], less than 1000 nM; in experiment [2] (Rattus norvegicus, Neuron), less than 1000 nM.

With `CO[C@H]1C[C@@H]2CC[C@@H](C)[C@@](O)(O2)C(=O)C(=O)N2CCCC[C@H]2C(=O)O[C@H]([C@H](C)C[C@@H]2CC[C@@H](O)[C@H](OC)C2)CC(=O)[C@H](C)/C=C(\C)[C@@H](O)[C@@H](OC)C(=O)[C@H](C)C[C@H](C)C2C=CC(/C=C/1C)ON2c1c(Cl)cccc1Cl` [Example 3], the concentration for a half-maximal effect (EC50) in experiment [3] and in experiment [1] was less than 1000 nM throughout.

`CO[C@H]1C[C@@H]2CC[C@@H](C)[C@@](O)(O2)C(=O)C(=O)N2CCCC[C@H]2C(=O)O[C@H]([C@H](C)C[C@@H]2CC[C@@H](OC(=O)C(C)(C)Cc3ccccn3)[C@H](OC)C2)CC(=O)[C@H](C)/C=C(\C)[C@@H](O)[C@@H](OC)C(=O)[C@H](C)C[C@H](C)C2C=CC(/C=C/1C)ON2c1ccccc1` [Example 6, 9,27-dihydroxy-3-{-2-[4-hydroxy-3-methoxycyclohexyl]-1-methylethyl}-10,21-dimethoxy-6,8,12,14,20,26-hexamethyl-37-phenyl-4,9,10,12,13,14,15,18,21,22,23,24,25,26,27,32,33,34,34a-nonadecahydro-3H-23,27-epoxy-18,15-(epoxyimino) pyrido[2,1-c][1,4]oxazacyclohentriacontine-1,5,11,28,29(6H,31H)-pentone ester with-2,2-dimethyl-3′-(pyridin-2-yl)-propionic acid]: the half-maximal effective concentration (EC50) in experiment [3] is less than 1000 nM; in experiment [2] (Rattus norvegicus, Neuron) it was less than 1000 nM.

On to `CO[C@H]1C[C@@H]2CC[C@@H](C)[C@@](O)(O2)C(=O)C(=O)N2CCCC[C@H]2C(=O)O[C@H]([C@H](C)C[C@@H]2CC[C@@H](O)[C@H](OC)C2)CC(=O)[C@H](C)/C=C(\C)[C@@H](O)[C@@H](OC)C(=O)[C@H](C)C[C@H](C)/C=C/C=C/C=C/1C` [rapamycin], for which the concentration for a half-maximal effect (EC50) in experiment [1] is greater than 1000 nM; in experiment [2] (Rattus norvegicus, Neuron) it was greater than 1000 nM.

Rapamycin phenyltriazolinedione: the 50% effective concentration (EC50) in experiment [2] was less than 1000 nM.
